pIC50: −log10 of the molar value.
How the values were obtained:
ALDH1A3 [1] = target: T1, ALDH1A3 (Homo sapiens, UniProt P47895); assay: ALDH1A3 cellular assay (ALDEFLUOR) in WM266.4 melanoma cells; assay type: cell-based; settings: WM266.4 cells; 60 min incubation; percentage of ALDH-positive cells
T1 sequence (P47895 1-512): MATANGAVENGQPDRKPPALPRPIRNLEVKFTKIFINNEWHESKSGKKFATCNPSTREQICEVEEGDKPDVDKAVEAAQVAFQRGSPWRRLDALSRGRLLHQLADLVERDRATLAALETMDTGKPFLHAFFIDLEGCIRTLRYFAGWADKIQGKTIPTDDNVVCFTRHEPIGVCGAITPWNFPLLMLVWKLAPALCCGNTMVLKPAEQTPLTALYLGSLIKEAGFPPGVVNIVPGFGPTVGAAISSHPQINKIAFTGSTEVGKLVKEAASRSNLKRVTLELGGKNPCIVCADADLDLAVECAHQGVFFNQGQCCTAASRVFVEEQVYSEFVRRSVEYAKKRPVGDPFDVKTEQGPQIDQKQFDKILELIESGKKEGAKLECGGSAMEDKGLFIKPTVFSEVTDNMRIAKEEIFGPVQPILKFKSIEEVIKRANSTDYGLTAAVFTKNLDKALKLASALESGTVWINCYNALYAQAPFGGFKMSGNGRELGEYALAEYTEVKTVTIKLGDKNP
Text: Materials: WM266.4 cells were procured from ATCC. (WM266-4 is a metastatic human melanoma cell line.) The ALDEFLUOR™ Assay kit (cat. no. 01700) and Aldefluor buffer (cat. no. 01702) were procured from StemCell Technologies. Dulbecco's Modified Eagle Medium (DMEM), FluoroBrite DMEM, Glutamax and Hoechst 33342 were purchased from ThermoFisher. Verapamil was obtained from Fluorochem. FBS was obtained from Sigma. Echo Qualified 384-well low-dead-volume microplate and Echo Qualified 384-well polypropylene microplate were purchased from Labcyte, and the Microclear black sterile polystyrene microplate from Greiner Bio-One.
Method: Intracellular inhibition of ALDH1A3 was assessed using the ALDEFLUOR™ Assay kit. The activated ALDEFLUOR™ reagent, BODIPY-aminoacetaldehyde (BAAA), is a fluorescent non-toxic substrate for ALDH enzymes, which freely diffuses into intact and viable cells. In the presence of ALDH enzyme activity, BAAA is converted into BODIPY-aminoacetate (BAA), which is retained inside the cells. The amount of fluorescent reaction product is proportional to the ALDH activity in the cells and is measured using an imaging cytometer. Active efflux of the reaction product is inhibited by an efflux inhibitor (Verapamil) in the ALDEFLUOR™ Assay Buffer.
A frozen vial of cells was recovered into a T225 flask containing DMEM, high glucose, 10% FBS, 1% glutamax, 1% HEPES. The following day, media was changed and cells were ready for assay from 72 hours after recovery. Cells were transferred into FluoroBrite DMEM (plus 10% FBS, 1% glutamax and 1% HEPES) and diluted to 2.5×10^5 cells/mL. 30 μL of cells were added to each well to give 7500 cells/well and then incubated overnight at 37° C., 5% CO2. After overnight incubation, the media was aspirated and replaced by 20 μL substrate/Hoechst buffer solution. Each plate requires 9 mL of solution comprising, 9 mL ALDEFLUOR assay buffer, 18 μL BAAA substrate (final concentration 500 nM), 4.5 μL Hoechst 33342 (final concentration 5 μg/mL) and 4.5 μL Verapamil (final concentration 50 μM). Compounds were prepared for dosing using the Echo acoustic dispenser by aliquoting into a source plate and dosed directly onto the cell assay plate to give a 10 point dose response per compound ranging from 10 μM to 0.0005 μM final concentration in 3-fold dilution steps. Plates were then incubated for 60 minutes at 37° C., 5% CO2. The buffer was then aspirated and cells washed twice in ice-cold PBS. Plates were kept on ice and 30 μL of cold Aldefluor buffer with 50 μM verapamil dispensed per well. The plates were then imaged using the CellInsight fluorescent microscope. Hoechst fluorescence in the 405 nm channel indicated the nuclear area and this was used to define nuclei and then the surrounding cellular area. Fluorescence in the 488 nm channel of the defined cellular area indicates ALDH1A3 activity. The percentage of cells positive for ALDH activity was plotted versus compound concentration to generate EC50 values using curve fitting parameters defined in Dotmatics software.

ALDH1A3 [2] = target: T1, ALDH1A3; assay: Primary biochemical assay, NAD(P)H-Glo Detection System; parameters: His-tag; made in house; host or cells: E. coli Rosetta (DE3); settings: 30 min pre-incubation, propionaldehyde and NAD at Km
Text: Cloning: Open reading frames corresponding to the protein coding sequences of full length human ALDH1A1 (Uniprot ID P00352), ALDH1A2 (094788) and ALDH1A3 (P47895) were polymerase chain reaction (PCR) amplified from human cDNA and inserted into the multi-cloning sites of the commercially available (Novagen) E. coli expression vectors pET47b (ALDH1A1, EcoRI restriction site; ALDH1A2, BamHI and EcoRI sites) or pET28a (ALDH1A3, NdeI and BamHI sites), using standard molecular genetic techniques. Recombinant DNA products were sequence verified prior to use in expression studies.
Expression: Expression constructs were transformed into the E. coli strain Rosetta (DE3) (Merck) and individual colonies used to inoculate 10 mL lysogen broth (LB) medium supplemented with kanamycin and chloramphenicol at 50 μg/mL and 34 μg/mL, respectively. Cultures were grown to saturation overnight at 37° C., prior to being used to sub-inoculate fresh 1 L LB medium cultures (plus antibiotics, as before). 1 L cultures were grown at 37° C., 200 rpm, throughout the day until the optical density at 600 nm (OD600) reached ˜0.8, at which point growth temperature was reduced to 18° C. and 1 mM isopropyl β-d-1-thiogalacto pyranoside (IPTG) added to induce protein expression.
Cultures were left overnight (at least 16 h) under these conditions and the following day harvested by centrifugation (4000 G, 10 minutes). Culture supernatant was discarded and cell pellets stored at −80° C. until further processing.
Purification: Cell pellets were thawed on ice, re-suspended in Ni Affinity Buffer A (20 mM HEPES pH 7.5, 300 mM NaCl, 20 mM imidazole, 1 mM tris(2-carboxyethyl)phosphine (TCEP)) with protease inhibitors (cOmplete Ultra protease inhibitor, Roche), and lysed by sonication. Lysates were clarified by centrifugation at 18,000 G, 4° C., for 40 minutes, and loaded directly onto a pre-equilibrated (Buffer A) 5 mL HisTrap Fast Flow column (GE Healthcare) by way of an AKTA Fast Protein Liquid Chromatography (FPLC) system. The column was sequentially treated with 6 column volumes (CV) 100% Buffer A, 8 CV of 90% Buffer A:10% Buffer B (20 mM 4-(2-hydroxyethyl)-1-piperazineethanesulfonic acid (HEPES) pH 7.5, 300 mM NaCl, 500 mM imidazole, 1 mM TCEP) and finally a linear gradient from 10-70% Buffer B over 8 CV to elute recombinant His-tagged protein. Relevant fractions (as measured by 280 nm absorbance) collected during elution were pooled and subjected to further purification by size exclusion chromatography (Superdex 200 26/600, GE Healthcare, running buffer 20 mM 2-(carbamoylmethylamino)ethanesulfonic acid (ACES) pH 7.5, 1 mM TCEP). Relevant fractions from this step were pooled, aliquoted, and stored at −80° C. until required for compound profiling assays.
Materials: ALDH2 was purchased from Abnova. Tris(hydroxymethyl)aminomethane (Tris) was purchased from MP Biomedicals. TCEP, ethylenediaminetetraacetic acid (EDTA), propionaldehyde, DMSO and Tween-20 were purchased from Sigma. Nicotinamide adenine dinucleotide (NAD) was obtained from Abcam. The NAD(P)H-Glo™ Detection System was purchased from Promega. White, non-binding surface, 384 well plates were supplied by Corning (#3574).
Method: Inhibition of ALDH1A3 was assessed using the NAD(P)H-Glo™ Detection System (Cat. No. G9062) from Promega. This assay detects the production of NADH from NAD by ALDH1A3 via the coupled enzymatic conversion of a proluciferin reductase substrate to generate a luminescent signal. Inhibition of ALDH1A3 by small molecule inhibitors will result in reduction or abrogation of luminescence signal increase above background. Inhibition of ALDH1A1, ALDH1A2 and ALDH2 (selectivity assays) were assessed using the same assay.
Compounds were dosed into Corning 384 well assay plates using an Echo acoustic dispenser to give 10 point curves in a 3-fold dilution series. Compounds were dispensed from a 20 mM DMSO stock and initially screened at a top concentration of 20 μM (ALDH1A3) or 250 μM (ALDH1A1, ALDH1A2 & ALDH2). […]

Which results are given for `O=C1CCc2cc(NC(=O)c3ncccc3-c3cccc(F)c3)ccc2N1` [ALDHI-1020, 3-(3-fluorophenyl)-N-(2-oxo-3,4-dihydro-1H-quinolin-6-yl)pyridine-2-carboxamide]?
pIC50 (ALDH1A3 [1]): 5.00 to 6.00; pIC50 (ALDH1A3 [2]): 5.00 to 6.00
